3 compounds from patent US4105798A, “Perfluoro polycyclic compounds for use as synthetic blood and perfusion media” (Sun Ventures, Inc., priority 1977, dated 1978) can be followed below.

A short description of data set [1]: percentage of injected PF material still in the liver of mice after stated weeks. It counts as in vivo. From the text: As indicated above, retention of the material in the body is important. The data below compare perfluorinated tributylamine (PFTBA), decalin (PFD), and methyldecalin (PFMD), with certain of the perfluorinated polycyclic hydrocarbons of this invention which have been obtained by perfluorinating the said polycyclic materials with just CoF3. Thus, in the table below "PFDMA" is the perfluorinated product derived from dimethyladamantane, i.e. a mixture of perfluorotrimethylbicyclo [3.3.1]nonane containing about 25 percent of other materials, principally perfluorinated dimethyladamantane. "PFMA" is the perfluorinated product of methyladamantane i.e., a mixture of perfluorodimethylbicyclo [3.3.1]nonanecontaining an unidentified amount of other compounds including perfluoromethyladamantane. Finally, "PFTHDCP" is the product of tetrahydrodicyclopentadiene, i.e. perfluorobicyclo [5.3.0] decane containing about 50 percent of other materials, principally perfluorotetrahydrodicyclopentadiene.
Emulsions containing 10% of the material to be tested, surfactant and water are made up and tested in the manner specified in Science, Vol. 181, August 1973, page 681. Mice were injected with the various emulsions. The mice were killed at intervals thereafter, the liver analyzed, and the percentage of original amount of PF material injected and still in the liver was determined.

Data set [2] in a line: LD50 after infusion of emulsion. Format: in vivo. The note with it: emulsions: 10.9% PFD, 10% PFDMA, 5% PFMA, 10% PFTBA. From the text: The LD50 after infusion (ml/kg) of our materials compared with others are follows: […]
The nature of data set [3]: relative emulsion stability. Format: physicochemical. As for the experimental part: (§1) The relative stability of a PFDMA emulsion and PFMA is excellent in that it is stable indefinitely, (e.g., over 6 months) at 4°-7° C whereas the PFD emulsion breaks down in several days at room temperature and in several weeks at 4°-7° C. PFTBA is also excellent. See for example the Journal of Microvascular Research, August 1974.

The nature of data set [4]: optical density / appearance of emulsion. It counts as physicochemical. The settings on record: for optical density of emulsion: emulsions prepared in the same manner. On the procedure:
as §1

On to `FC1(F)C(F)(F)C(F)(F)C2(F)C(F)(F)C(F)(F)C(F)(F)C(F)(F)C2(F)C1(F)F` (centres unmarked) [PFD, perfluorodecalin], for which the “Percent of Dose in Liver After Stated Weeks” value (shortened to “Percent of Dose”) in data set [1] (mouse, in vivo, 20160 min) was found to be 4%; in data set [1] (mouse, in vivo, 60480 min) it was 2%; in data set [1] (mouse, in vivo, 120960 min), 2%. Moreover, in data set [2], the “LD50 after infusion, 1 Hr.” value is 190 mL/kg. In addition, the “LD50 after infusion, 3 Days” value in data set [2] came to 160 mL/kg. Besides, in data set [2], the “LD50 after infusion, 7 Days” value was found to be 159 mL/kg. The “time to emulsion break down” value in data set [3] (4°-7° C) was “several weeks”; in data set [3] (room temperature), “several days”. Besides, the “optical density of emulsion” value in data set [4] is reported as 0.4.

With `FC(F)(F)C(F)(F)C(F)(F)C(F)(F)N(C(F)(F)C(F)(F)C(F)(F)C(F)(F)F)C(F)(F)C(F)(F)C(F)(F)C(F)(F)F` [PFTBA, perfluorinated tributylamine], the “Percent of Dose” value stood at 38% in data set [1] (mice, injected emulsion containing 10% of material, 2 weeks); 30% in data set [1] (mice, injected emulsion containing 10% of material, 6 weeks); 30% in data set [1] (mice, injected emulsion containing 10% of material, 12 weeks); 30% in data set [1] (mice, injected emulsion containing 10% of material, 20 weeks). Also, the “LD50 after infusion, 1 Hr.” value in data set [2] came to 200 mL/kg. Also, the “LD50 after infusion, 3 Days” value in data set [2] amounted to 120 mL/kg. For the same compound, the “LD50 after infusion, 7 Days” value in data set [2] came out at 120 mL/kg. Besides, the “relative stability of emulsion (in words)” value in data set [3] (emulsion) is “excellent”. Also, the “optical density of emulsion” value in data set [4] is given as 2.2. Besides, the appearance of emulsion result in data set [4] (in words) is on record as “very milky in appearance”.

As to methyldecalin [PFMD], the “Percent of Dose” value in data set [1] (mouse, in vivo, 20160 min) turned out to be 30%; in data set [1] (mouse, in vivo, 60480 min), 19%; in data set [1] (mouse, in vivo, 120960 min), 2%; in data set [1] (mouse, in vivo, 201600 min), 2%.
